The target of one assay is UnaG. On the set-up: method as in PMID 23768684. The conditions noted are these: modified FABP family member derived from eel; cited from earlier work.
The next assay deals with T1, hWNK1(181–507 S382A) (Homo sapiens, UniProt Q9H4A3, S382A).
T1 construct: The kinase‐dead WNK1 mutant hWNK1(181–507 S382A) served as a negative control
As to the kind of experiment: ADP-Glo kinase assay, kinase-dead WNK1 mutant control. In kind it is biochemical. The conditions noted are these: negative control. The source says:
Given the binding of bilirubin to the kinase domain of WNK1, we aimed to explore its effect on WNK1 with a particular focus on its kinase activity. To evaluate WNK1 kinase activity, we utilized an in vitro kinase enzyme assay system to quantify ADP production by the amino acid fragment 181–507 of human WNK1 (hWNK1) over a range of bilirubin concentrations. The kinase‐dead WNK1 mutant hWNK1(181–507 S382A) served as a negative control (Figure S10, Supporting Information).^[ [30] ^]
WNK1 kinase activity was measured using the ADP‐Glo Kinase Assay (Promega, Cat. V9101) following the manufacturer's instructions. Purified protein was incubated with bilirubin across a range of 12 serially diluted concentrations, beginning at a maximum concentration of 20 µM. After the incubation period, luminescence was recorded using a microplate reader (Synergy H1M, BioTek)
In general terms: In ADP-Glo the light output rises with the ADP produced.

The next assay has as its target T2, hWNK4 (Homo sapiens, UniProt Q96J92).
T2 construct: expressed in transfected cells; host or cells: HEK293T
In words: MST, WNK kinase family member WNK4. In kind it is binding. As to the method: To validate the direct binding of bilirubin to WNK1, we performed a Microscale Thermophoresis (MST) analysis, which assesses the binding capacity of a compound by measuring the movement of proteins over a microscopic temperature gradient.^[ [26], [27] ^] We overexpressed full‐length WNK1 fused with Green Fluorescent Protein (GFP) in HEK‐293 cells, incubated the lysates with bilirubin at varying dilutions, and subjected them to precise MST measurements in capillaries. […] Furthermore, biliverdin, a structurally similar intermediate product generated before bilirubin formation, was used as a control.
All WNK1 clones were derived from the original untagged hWNK1 cDNA (NM_018979), which was modified and subcloned into the pcDNA3.1, referred to as “full‐length WNK1” throughout this study. Truncated constructs, including 1–190aa, 191–491aa, 1–491aa, and 491–2382aa fragments, were generated by PCR using the full‐length template and subsequently ligated into linearized pcDNA3.1 vectors. WNK2 was obtained from Addgene Plasmid #24569, and WNK3 was obtained from Addgene Plasmid #81723. Both were subjected to base modifications and cloned into pcDNA3.1. The WNK4 clone was derived from hWNK4 cDNA (NM_032387.5), modified, and subcloned into the pCMV3‐C‐GFPSpark vector.
In HEK293T cells, proteins tagged with green fluorescent protein (GFP) were expressed. […]

For a further assay, the target named is MRGPRs. On the set-up: method as in PMID 37390966, PMID 30657454. The conditions noted are these: peripheral sensory neurons; cited from earlier work.
The subject of assay [1] is OSR1 and SPAK phosphorylation. As to the kind of experiment: Western blotting of OSR1 and SPAK phosphorylation in hippocampus. In kind it is cell-based, mouse. The source says:
To further investigate the impact of bilirubin on WNK1 kinase activity, we generated hippocampal neuron‐specific Wnk1 knockout mice. Given that conventional Wnk1 knockout mice are embryonically lethal, we employed the CRISPR/Cas9 method to create mice carrying the floxed Wnk1 gene. Then we crossed Thy1‐Cre mice with Wnk1^flox/flox mice to generate hippocampal neuron‐specific Wnk1 knockout mice. We examined the effects of bilirubin on the phosphorylation of WNK1 downstream targets, Ste20‐related proline alanine‐rich kinase (SPAK), and oxidative stress‐responsive kinase 1 (OSR1), in the hippocampus of Wnk1^flox/flox and Wnk1^flox/flox,Thy1‐Cre mice. Upon bilirubin treatment, phosphorylation of OSR1 and SPAK was elevated in the hippocampus of Wnk1^flox/flox mice. […] These findings indicate that the effect of bilirubin on OSR1 and SPAK phosphorylation is WNK1‐dependent (Figure 4B). To rule out the potential effects of osmolarity on the phosphorylation of WNK1, OSR1, and SPAK, we measured the osmolarity of different bilirubin concentrations.
Cells or tissues were lysed by grinding in RIPA buffer (cat. no. PC101; Epizyme Biotech) supplemented with a protease inhibitor cocktail (cat. no. 5872S; Cell Signaling Technology) at 4 °C. […] The total protein concentration was determined using the Pierce BCA Protein Assay Kit (cat. no. 23 225, Thermo Fisher Scientific). […]

pKd: −log10 of the molar value.

T1 sequence (Q9H4A3 181-507 S382A): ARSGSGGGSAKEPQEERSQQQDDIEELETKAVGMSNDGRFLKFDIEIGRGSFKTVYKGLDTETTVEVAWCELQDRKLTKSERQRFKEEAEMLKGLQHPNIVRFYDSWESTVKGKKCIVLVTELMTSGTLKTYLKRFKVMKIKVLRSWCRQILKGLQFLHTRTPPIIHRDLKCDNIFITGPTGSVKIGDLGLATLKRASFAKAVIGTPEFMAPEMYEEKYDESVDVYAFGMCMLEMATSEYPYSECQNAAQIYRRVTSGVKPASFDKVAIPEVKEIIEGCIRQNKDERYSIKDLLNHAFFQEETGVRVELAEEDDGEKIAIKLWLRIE
T2 sequence (Q96J92 whole entry): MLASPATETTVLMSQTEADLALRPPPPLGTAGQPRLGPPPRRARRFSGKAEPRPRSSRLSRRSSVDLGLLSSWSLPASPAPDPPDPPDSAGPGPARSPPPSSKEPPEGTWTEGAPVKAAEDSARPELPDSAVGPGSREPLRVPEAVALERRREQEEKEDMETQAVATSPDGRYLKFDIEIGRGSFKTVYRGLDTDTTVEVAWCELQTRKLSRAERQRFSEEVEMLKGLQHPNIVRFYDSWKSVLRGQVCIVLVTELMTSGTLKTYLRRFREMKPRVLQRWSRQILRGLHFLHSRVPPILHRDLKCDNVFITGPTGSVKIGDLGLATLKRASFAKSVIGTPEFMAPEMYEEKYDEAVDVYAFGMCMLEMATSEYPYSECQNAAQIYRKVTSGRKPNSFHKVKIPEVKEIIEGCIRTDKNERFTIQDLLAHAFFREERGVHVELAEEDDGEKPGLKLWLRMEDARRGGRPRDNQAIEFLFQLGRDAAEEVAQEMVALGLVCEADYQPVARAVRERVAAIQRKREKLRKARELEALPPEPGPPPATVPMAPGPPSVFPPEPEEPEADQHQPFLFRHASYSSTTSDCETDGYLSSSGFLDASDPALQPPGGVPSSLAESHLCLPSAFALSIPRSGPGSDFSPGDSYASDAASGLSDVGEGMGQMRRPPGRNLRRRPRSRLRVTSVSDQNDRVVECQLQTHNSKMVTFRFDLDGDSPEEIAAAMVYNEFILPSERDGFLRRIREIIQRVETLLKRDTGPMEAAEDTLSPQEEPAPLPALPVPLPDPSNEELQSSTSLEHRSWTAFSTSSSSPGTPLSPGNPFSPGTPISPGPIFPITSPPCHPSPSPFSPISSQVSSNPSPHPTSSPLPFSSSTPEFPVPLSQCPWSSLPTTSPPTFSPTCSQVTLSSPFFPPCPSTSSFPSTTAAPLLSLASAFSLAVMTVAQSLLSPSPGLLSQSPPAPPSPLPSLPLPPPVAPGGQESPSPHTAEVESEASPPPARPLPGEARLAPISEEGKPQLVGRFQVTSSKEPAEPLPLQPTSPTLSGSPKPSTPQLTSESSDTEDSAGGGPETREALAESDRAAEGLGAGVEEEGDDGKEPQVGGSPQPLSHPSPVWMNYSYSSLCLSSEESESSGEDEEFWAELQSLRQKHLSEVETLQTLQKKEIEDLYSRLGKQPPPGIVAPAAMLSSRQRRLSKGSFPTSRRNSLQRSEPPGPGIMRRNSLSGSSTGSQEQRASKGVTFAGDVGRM

Broadly, the pKd is the Kd on a negative log10 scale, so that one unit is a factor of ten. As to `C=CC1=C(C)/C(=C/c2[nH]c(Cc3[nH]c(/C=C4\NC(=O)C(C)=C4C=C)c(C)c3CCC(=O)O)c(CCC(=O)O)c2C)NC1=O` [bilirubin, Bilirubin], the pKd was 10.01 at UnaG, 6.55 on hWNK4 and 4.03 to 4.26 on MRGPRs. Besides, at hWNK1(181–507 S382A), the “effect on kinase activity of kinase-dead mutant” value is reported as “no effect”. The “phosphorylation of OSR1 and SPAK” value in assay [1] (hippocampus of Wnk1flox/flox mice) was “elevated”; in assay [1] (hippocampus of Wnk1flox/flox,Thy1-Cre mice), “minimal impact”.

(Values after paper PMC12362796, “Bilirubin Targeting WNK1 to Alleviate NLRP3‐Mediated Neuroinflammation” (Advanced Science, 2025).)
